Assay results as given in patent publication US10294260B2, “Tetracyclic anthraquinone derivatives” (TIANJIN HEMAY ONCOLOGY PHARMACEUTICAL CO., LTD., priority 2012, dated 2019).

What was measured:
mice of ICR strain = assay: Assay on MTD (maximum tolerated dose) in vivo of mice; conditions: for Number of Dead Animals ♂/♀ / Number of animals that died immediately after the injection (a) ♂/♀: male/female; for Number of animals that died immediately after the injection (a) ♂/♀: not counted in mortality rate
Protocol: Assay on MTD (Maximum Tolerated Dose) In Vivo of Mice
Assay on Maximum Tolerated Dose of Compound
Assay animals: mice of ICR strain with a weight of 18-22 g, purchased from Beijing Vital River Laboratories Limited, License SCXK (jing) 2007-0001.
Administration Regimen: each experimental animal was administered with corresponding dosage of tested substance once by injection of caudal vain every three days. Each dosage was initially designed as 5 times of administration. The specific time of administration depended on the conditions of the animals. It should be carefully observed the behavior conditions of the animals within 2 hours after administration. The animal's behavior was observed every 4 hours in the day of administration. The survival conditions and weight of animals were recorded every day and observed for whether abnormality occurred on the body surface thereof. The experimental animals were sacrificed on 14 day after administration and dissected for observation.
I group: (20 mg/kg) group;
II group: (25 mg/kg) group;
III group: (30 mg/kg) group;
IV group: solvent control group;
There were four groups in total. Each group consisted of five male mice and five female mice.
I group: (40 mg/kg) group;
II group: (45 mg/kg) group;
III group: (50 mg/kg) group;
V group: (60 mg/kg) group;
There were five groups in total. Each group consisted of six male mice and six female mice.

[1] = Storage stability detected by HPLC; assay type: physicochemical; conditions: sealed and stored for 9 months under refrigeration conditions

Compound | Number of Dead Animals ♂/♀ (mice of ICR strain; 40 mg/kg, 5 administrations) | Number of Dead Animals ♂/♀ (mice of ICR strain; 45 mg/kg, 5 administrations) | Number of animals that died immediately after the injection (a) ♂/♀ (mice of ICR strain; 45 mg/kg, 5 administrations) | Number of Dead Animals ♂/♀ (mice of ICR strain; 50 mg/kg, 5 administrations) | Number of animals that died immediately after the injection (a) ♂/♀ (mice of ICR strain; 50 mg/kg, 5 administrations) | Number of Dead Animals ♂/♀ (mice of ICR strain; 55 mg/kg, 5 administrations) | Number of animals that died immediately after the injection (a) ♂/♀ (mice of ICR strain; 55 mg/kg, 5 administrations) | Number of Dead Animals ♂/♀ (mice of ICR strain; 60 mg/kg, 5 administrations) | stability (degraded product by HPLC) [1] | Number of Dead Animals ♂/♀ (mice of ICR strain; 20 mg/kg, 4 administrations) | Mortality Rate (%) (mice of ICR strain; 20 mg/kg, 4 administrations, total dosage 80 mg/kg) | Number of Dead Animals ♂/♀ (mice of ICR strain; 25 mg/kg, 4 administrations) | Mortality Rate (%) (mice of ICR strain; 25 mg/kg, 4 administrations, total dosage 100 mg/kg) | Number of Dead Animals ♂/♀ (mice of ICR strain; 30 mg/kg, 3 administrations) | Mortality Rate (%) (mice of ICR strain; 30 mg/kg, 3 administrations, total dosage 90 mg/kg) | Number of Dead Animals ♂/♀ (mice of ICR strain; 30 mg/kg, 5 administrations) | Mortality Rate (%) (mice of ICR strain; 30 mg/kg, 5 administrations, total dosage 150 mg/kg) | Mortality Rate (%) (mice of ICR strain; 40 mg/kg, 5 administrations, total dosage 200 mg/kg) | Mortality Rate (%) (mice of ICR strain; 50 mg/kg, 5 administrations, total dosage 250 mg/kg) | Mortality Rate (%) (mice of ICR strain; 60 mg/kg, 5 administrations, total dosage 300 mg/kg)
COc1cccc2c1C(=O)c1c(O)c3c(c(O)c1C2=O)CC(O)(C(=O)COC(=O)CCC(=O)NCCN1CCOCC1)CC3O[C@H]1C[C@H](n2cccc2)[C@H](O)[C@H](C)O1.O=P(O)(O)O (stereo partly drawn) [Example 96, 10-((3′-(Pyrrol-1-yl)-2′,3′,6′-Trideoxy-Alpha-L-Lyxo-Hexylpyranyl)Oxy)-7,8,9,10-Tetrahydro-6,8,11-Trihydroxy-13-Oxo-14-(4-((2-(Morpholin-1-yl)Ethyl)Amino)-4-Oxo-Butyrato)-1-Methoxy-5,12-Naphthalenedione Phosphate] | 0/1 | 0/0 | 1/2 | 0/0 | 1/1 | 5/4 | 5/3 | 3/4 | No obvious degraded product was observed |  |  |  |  |  |  |  |  |  |  | 
COc1cccc2c1C(=O)c1c(O)c3c(c(O)c1C2=O)C[C@@](O)(C(=O)CO)C[C@@H]3O[C@H]1C[C@H](n2cccc2)[C@H](O)[C@H](C)O1 [3′-Pyrrolyldoxorubicin] |  |  |  |  |  |  |  |  |  | 5/5 | 100 | 5/5 | 100 | 5/5 | 100 |  |  |  |  | 
COc1cccc2c1C(=O)c1c(O)c3c(c(O)c1C2=O)CC(O)(C(=O)COC(=O)CCC(=O)O)CC3OC1CC(n2cccc2)C(O)C(C)O1 (centres unmarked) [Compound A, 3′-pyrrolyldoxorubicin-14-oxo-succinic acid monoester] | 3/2 |  |  | 5/5 |  |  |  | 5/5 |  |  |  |  |  |  |  | 0/1 | 10 | 50 | 100 | 100
